For this experiment, the system named is human umbilical vein endothelial cells (HUVEC). Put plainly: HUVEC proliferation assay. It counts as cell-based. The conditions noted are these: for inhibition at 0.01 µM / inhibition at 0.05 µM / inhibition at 0.001 µM / inhibition at 0.15 µM: Homo sapiens, HUVEC; for inhibition at 0.01 µM: 10 nM; for inhibition at 0.05 µM: 50 nM; for inhibition at 0.001 µM: 1 nM; for inhibition at 0.15 µM / % inhibition @ 150 nM: Table I screening results, 150 nM. The procedure, abridged: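 Readout was MTT dye reduction (A595) after 72 h of stimulation with VEGF at 6 ng/ml final. Compound, in 0.1% DMSO final, was added 1 h before VEGF to HUVEC starved 24 h in 1% FBS. % inhibition was scaled between VEGF-alone and unstimulated wells; IC50 was fitted from triplicate dose curves.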

The mark [1] stands for this setting: crude combinatorial urea library, read-out: Inhibition of HUVEC Proliferation % inhibition @ 10 nM.
Setting [2] is: crude combinatorial urea library, read-out: Inhibition of HUVEC Proliferation % inhibition @ 50 nM.
[3] abbreviates: Inhibition of HUVEC Proliferation, crude combinatorial urea library, read-out: Inhibition @ 50 nM.
The mark [4] stands for this setting: table following Table II (untitled), crude combinatorial library.
[5] abbreviates: table following Table II (untitled), crude combinatorial library, read-out: % inhibition @ 10 nM.
Where [6] appears, read: crude combinatorial amide library.
Where [7] appears, read: Inhibition of HUVEC Proliferation, crude combinatorial urea library, read-out: % inhibition @ 50 nM.
The mark [8] stands for this setting: Table II screening results, crude combinatorial amide library.
[9] abbreviates: Table II screening results, crude combinatorial amide library, read-out: % inhibition @ 10 nM.

Where two headings read alike, the source gives them in different places.

As for `COc1cccc(C(=O)Nc2cccc(-c3csc(-c4sc(NC(=O)NCCN5CCNC5=O)nc4N)n3)c2)c1`, the inhibition at 0.01 µM under setting [1] is 0%. Also, under setting [2], the inhibition at 0.05 µM was determined as 35%.
Take `COc1cccc(C(=O)Nc2cc(-c3noc(-c4sc(NC(=O)NCCc5ccc(S(N)(=O)=O)cc5)nc4N)n3)c(F)cc2F)c1`: the inhibition at 0.05 µM under setting [3] was 83%.
`COc1cccc(C(=O)Nc2cc(-c3noc(-c4sc(NC(=O)NCC(C)(O)CO)nc4N)n3)c(F)cc2F)c1` (stereo not shown): the inhibition at 0.05 µM under setting [3] worked out at 45%.
With `COc1cc(Nc2nc(N)c(-c3nc(-c4cc(NC(=O)[C@H]5CC(=O)NC(=O)N5)ccc4C)no3)s2)cc(OC)c1OC`, under setting [4], the inhibition at 0.001 µM is 25%. Besides, the inhibition at 0.01 µM under setting [5] was found to be 2%.
For `COc1cc(Nc2nc(N)c(-c3nc(-c4cccc(NC(=O)CN5C(=O)CSC5=O)c4)cs3)s2)cc(OC)c1OC`, the inhibition at 0.15 µM under setting [6] was 17%.
Turning to `COc1cccc(C(=O)Nc2cc(-c3noc(-c4sc(NC(=O)NCCO)nc4N)n3)c(F)cc2F)c1` [drawing 806], under setting [3], the inhibition at 0.05 µM stood at 19%.
As for `COc1cc(Nc2nc(N)c(-c3nc(-c4cc(NC(=O)C5CCCO5)ccc4C)no3)s2)cc(OC)c1OC` (stereo not shown), the inhibition at 0.001 µM under setting [4] worked out at 7%. Further, under setting [5], the inhibition at 0.01 µM came to 21%.
Turning to `COc1cc(Nc2nc(N)c(-c3nc(-c4cccc(NC(=O)c5sc(C)nc5C)c4)cs3)s2)cc(OC)c1OC` [drawing 894], the inhibition at 0.15 µM under setting [6] stood at 19%.
Turning to `COc1cc(Nc2nc(N)c(-c3nc(-c4cc(NC(=O)C5CCC6CCC(O)CC5C6)ccc4C)no3)s2)cc(OC)c1OC` (stereo not shown), the inhibition at 0.001 µM under setting [4] is 10%. Moreover, the inhibition at 0.01 µM under setting [5] worked out at 11%.
With `COc1cc(Nc2nc(N)c(-c3nc(-c4cccc(NC(=O)/C=C/c5ccc(Cl)cc5)c4)cs3)s2)cc(OC)c1OC`, under setting [6], the inhibition at 0.15 µM worked out at 40%.
Consider `COc1cccc(C(=O)Nc2cc(-c3csc(-c4sc(NC(=O)NCC(C)O)nc4N)n3)c(F)cc2F)c1` (stereo not shown), for which the inhibition at 0.05 µM under setting [7] came to 111%.
The same measure, in the same setting: the same measure for `COc1cccc(C(=O)Nc2cc(-c3csc(-c4sc(NC(=O)NCCCCN(C)C)nc4N)n3)c(F)cc2F)c1`: 30%; for `COc1cccc(C(=O)Nc2cc(-c3csc(-c4sc(NC(=O)NCCN5CCCCC5)nc4N)n3)c(F)cc2F)c1`: 74%.
For the molecule `COc1cccc(C(=O)Nc2cc(-c3noc(-c4sc(NC(=O)NCCCN5CCCCC5)nc4N)n3)c(F)cc2F)c1`, the inhibition at 0.05 µM under setting [3] was -20%.
`CNC(=O)Nc1nc(N)c(-c2nc(-c3cccc(NC(=O)C(=O)Cc4ccccc4)c3)cs2)s1`: the inhibition at 0.001 µM under setting [8] was 8%. The inhibition at 0.01 µM under setting [9] was 25%.
`COc1cccc(C(=O)Nc2cc(-c3csc(-c4sc(NC(=O)NC(CO)CO)nc4N)n3)c(F)cc2F)c1`: the inhibition at 0.05 µM under setting [7] amounted to 76%.
For the molecule `CNC(=O)Nc1nc(N)c(-c2nc(-c3cccc(NC(=O)C4CCOC4)c3)cs2)s1` (stereo not shown), the inhibition at 0.001 µM under setting [8] was -5%. Further, the inhibition at 0.01 µM under setting [9] was -8%.
As for `COc1cc(Nc2nc(N)c(-c3nc(-c4cccc(NC(=O)C5C[C@@H]6C=C[C@H]5C6)c4)cs3)s2)cc(OC)c1OC` (stereo partly shown), the inhibition at 0.15 µM under setting [6] worked out at 37%.
Consider `COc1cccc(C(=O)Nc2cccc(-c3csc(-c4sc(NC(=O)NC(C)CN(C)C)nc4N)n3)c2)c1` (stereo not shown), for which, under setting [1], the inhibition at 0.01 µM came out at 12%. Further, the inhibition at 0.05 µM under setting [2] worked out at 28%.
Regarding `COc1cccc(C(=O)Nc2cc(-c3noc(-c4sc(NC(=O)NCCC5CCCN5C)nc4N)n3)c(F)cc2F)c1` (stereo not shown), the inhibition at 0.05 µM under setting [3] amounted to 104%.
Take `COc1cc(Nc2nc(N)c(-c3nc(-c4cccc(NC(=O)C5CCc6ccccc6C5)c4)cs3)s2)cc(OC)c1OC` (stereo not shown): the inhibition at 0.15 µM under setting [6] stood at 11%.
`COc1cc(Nc2nc(N)c(-c3nc(-c4cccc(NC(=O)c5ccc6[nH]cnc6c5)c4)cs3)s2)cc(OC)c1OC`: under setting [6], the inhibition at 0.15 µM was -30%.
In the case of `COc1cc(Nc2nc(N)c(-c3nc(-c4cccc(NC(=O)c5ccc6cc[nH]c6c5)c4)cs3)s2)cc(OC)c1OC`, the inhibition at 0.15 µM under setting [6] came out at 25%.
On to `COc1cccc(C(=O)Nc2cc(-c3csc(-c4sc(NC(=O)NCCC(=O)O)nc4N)n3)c(F)cc2F)c1`, for which the inhibition at 0.05 µM under setting [7] came out at 66%.
Turning to `CNC(=O)Nc1nc(N)c(-c2nc(-c3cccc(NC(=O)/C=C/c4cccc(OC)c4)c3)cs2)s1`, the inhibition at 0.001 µM under setting [8] was -1%. In addition, under setting [9], the inhibition at 0.01 µM is -12%.
For `COc1cc(Nc2nc(N)c(-c3nc(-c4cc(NC(=O)c5ccccc5C(C)C)ccc4C)no3)s2)cc(OC)c1OC`, the inhibition at 0.001 µM under setting [4] amounted to 6%. Under setting [5], the inhibition at 0.01 µM is 11%.
Take `COc1cc(Nc2nc(N)c(-c3nc(-c4cccc(NC(=O)c5cccc(C(=O)c6ccccc6)c5)c4)cs3)s2)cc(OC)c1OC`: the inhibition at 0.15 µM under setting [6] was -18%.
As for `COc1cccc(C(=O)Nc2cccc(-c3csc(-c4sc(NC(=O)NCCO)nc4N)n3)c2)c1`, the inhibition at 0.01 µM under setting [1] was 38%.
For the molecule `COc1cccc(C(=O)Nc2cccc(-c3csc(-c4sc(NC(=O)NCCCN5CCCCCC5)nc4N)n3)c2)c1`, the inhibition at 0.01 µM under setting [1] worked out at 2%. Also, the inhibition at 0.05 µM under setting [2] is 117%.
With `COc1cc(Nc2nc(N)c(-c3nc(-c4cc(NC(=O)Cc5cn(C)cn5)ccc4C)no3)s2)cc(OC)c1OC`, under setting [4], the inhibition at 0.001 µM was -7%. In addition, the inhibition at 0.01 µM under setting [5] was -14%.
With `COc1cccc(C(=O)Nc2cccc(-c3csc(-c4sc(NC(=O)NCC(O)CO)nc4N)n3)c2)c1` (stereo not shown), under setting [1], the inhibition at 0.01 µM is -3%. Also, the inhibition at 0.05 µM under setting [2] is 42%.
Turning to `COc1cccc(C(=O)Nc2cc(-c3noc(-c4sc(NC(=O)NCC#N)nc4N)n3)c(F)cc2F)c1`, under setting [3], the inhibition at 0.05 µM was determined as 12%.
With `COc1cc(Nc2nc(N)c(-c3nc(-c4cccc(NC(=O)CC(C)c5ccccc5)c4)cs3)s2)cc(OC)c1OC` (stereo not shown), the inhibition at 0.15 µM under setting [6] came out at 26%.
In the case of `CCC(CO)NC(=O)Nc1nc(N)c(-c2nc(-c3cc(NC(=O)c4cccc(OC)c4)c(F)cc3F)cs2)s1` (stereo not shown), the inhibition at 0.05 µM under setting [7] came to 108%.
For the molecule `CNC(=O)Nc1nc(N)c(-c2nc(-c3cccc(NC(=O)/C=C/c4ccccc4OC)c3)cs2)s1`, the inhibition at 0.001 µM under setting [8] was -34%. For the same molecule, the inhibition at 0.01 µM under setting [9] amounted to 46%.
Regarding `COc1cccc(C(=O)Nc2cc(-c3noc(-c4sc(NC(=O)NCCN(C(C)C)C(C)C)nc4N)n3)c(F)cc2F)c1`, the inhibition at 0.05 µM under setting [3] was -6%.
Consider `COc1cc(Nc2nc(N)c(-c3nc(-c4cccc(NC(=O)/C=C/c5ccccc5F)c4)cs3)s2)cc(OC)c1OC`, for which, under setting [6], the “% inhibition @ 150 nM” value is 0%.
In the case of `COc1cccc(C(=O)Nc2cc(-c3noc(-c4sc(NC(=O)NCCCN5CCCCCC5)nc4N)n3)c(F)cc2F)c1`, the inhibition at 0.05 µM under setting [3] was 21%.
In the case of `COc1cccc(C(=O)Nc2cc(-c3csc(-c4sc(NC(=O)NCC(C)(C)CN(C)C)nc4N)n3)c(F)cc2F)c1`, the inhibition at 0.05 µM under setting [7] amounted to 75%.
With `COc1cc(Nc2nc(N)c(-c3nc(-c4cccc(NC(=O)C5Cc6ccccc65)c4)cs3)s2)cc(OC)c1OC` (stereo not shown), the inhibition at 0.15 µM under setting [6] was found to be 56%.
As for `CCC(O)CNC(=O)Nc1nc(N)c(-c2nc(-c3cc(NC(=O)c4cccc(OC)c4)c(F)cc3F)no2)s1` (stereo not shown), under setting [3], the inhibition at 0.05 µM was determined as 93%.
On to `COc1cc(Nc2nc(N)c(-c3nc(-c4cccc(NC(=O)C5C(C=C(C)C)C5(C)C)c4)cs3)s2)cc(OC)c1OC` (stereo not shown), for which, under setting [6], the inhibition at 0.15 µM came out at 19%.
With `COc1cccc(C(=O)Nc2cc(-c3noc(-c4sc(NC(=O)NCCNc5ccccc5)nc4N)n3)c(F)cc2F)c1`, under setting [3], the inhibition at 0.05 µM was found to be 89%.
Take `COc1cccc(C(=O)Nc2cc(-c3noc(-c4sc(NC(=O)NCCC(=O)NCC(=O)O)nc4N)n3)c(F)cc2F)c1`: the inhibition at 0.05 µM under setting [3] worked out at 49%.
With `COc1cc(Nc2nc(N)c(-c3nc(-c4cccc(NC(=O)/C=C/c5cccc(F)c5)c4)cs3)s2)cc(OC)c1OC`, the “% inhibition @ 150 nM” value under setting [6] is 0%.

For the origin of these results see patent publication US6620828B2, “Thiazole compounds and pharmaceutical compositions for inhibiting protein kinases and methods for their use” (Agouron Pharmaceuticals, Inc., priority 1999, dated 2003).
